Where a SMILES comes first, the peptide text is derived from it. Bridges are numbered along the chain shown (N, C = ends).
Legend:
[1] = test system: prefrontal pyramidal neurons; assay: Golgi-Cox dendritic morphology and Sholl analysis of prefrontal cortex neurons; type: in vivo, mouse
Procedure: For behavioral experiments, all litters were randomly divided into Ro 25-1553- and PBS-treated groups. From P1 to P14, mice were injected s.c. once daily with Ro 25-1553 at a dose of 0.07 nmol/g ([Ago et al., 2015]). Mice treated with PBS from P1 to P14 were used as the control. KS-133 or the vehicle was simultaneously injected with Ro 25-1553 or PBS. Animals were weaned at P21 and divided by gender at P28. We used male mice exclusively to minimize any potential variability due to sex-specific effects on behavioral performance. […]
Dendritic morphological analysis was performed on mice after the novel object recognition test and samples were collected within 10 min of dissection. […] Morphologies of apical and basal dendrites were quantified in three dimensions using the Neurolucida neuron tracing system (MBF Bioscience, Williston, VT) with the experimenter blinded to the treatment. […]
FIGURE 6 Alterations in the dendritic morphology of prefrontal pyramidal neurons in mice treated with Ro 25-1553 and KS-133 during the early postnatal period. […] The number of intersections of dendrites with 7.5-μm concentric spheres centered on the soma was measured by Sholl analysis. Results are expressed as the mean ± S.E.M. of 40 neurons from five mice per group. *p < 0.05, **p < 0.01, ***p < 0.001.

human PAC1 = molecular target: T1, human PAC1 (Homo sapiens, UniProt P41586); assay: Calcium influx assay, antagonist activity against PACAP-PAC1 signaling; type: cell-based; settings: ligand PACAP (35 nM) at EC80; CHO-K1 cells; n = 4 wells, ± S.E.M; read-out: Ca influx assay [IC50 (nM)] PAC1
T1 construct: host or cells: CHO-K1
T1 sequence (P41586 21-468): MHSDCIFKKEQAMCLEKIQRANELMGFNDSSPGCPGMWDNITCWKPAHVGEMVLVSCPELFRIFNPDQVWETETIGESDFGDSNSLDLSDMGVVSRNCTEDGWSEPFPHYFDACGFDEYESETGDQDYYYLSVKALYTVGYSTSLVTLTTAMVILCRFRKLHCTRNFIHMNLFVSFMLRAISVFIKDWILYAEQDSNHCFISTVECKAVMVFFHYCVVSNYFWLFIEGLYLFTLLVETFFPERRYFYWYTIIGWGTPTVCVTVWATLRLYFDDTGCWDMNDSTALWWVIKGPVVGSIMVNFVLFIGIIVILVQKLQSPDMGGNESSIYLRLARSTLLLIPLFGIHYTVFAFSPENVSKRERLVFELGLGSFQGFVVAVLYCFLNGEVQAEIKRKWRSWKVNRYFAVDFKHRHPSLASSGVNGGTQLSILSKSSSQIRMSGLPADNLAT
Procedure: Evaluation of antagonist activities of peptides against VIP-VIPR1, VIP-VIPR2, and PACAP-PAC1 signaling pathways and agonistic activity of KS-133 at VIPR2 was carried out by Eurofins DiscoverX (Fremont, CA, United States). Intracellular calcium mobilization was monitored using a calcium-sensitive dye loaded in CHO-K1 cells expressing human VIPR1 (ITEM 86-0030P-2243AN), VIPR2 (ITEM 86-0030P-2244AN), and PAC1 (ITEM 86-0030P-2066AN). The cells were preincubated with antagonistic peptides for 30 min at room temperature in the dark. After addition of the ligand at EC80, calcium mobilization was immediately monitored by FLIPR Tetra for 2 min. Cyclic AMP production in CHO-K1 cells expressing human VIPR2 was evaluated using HitHunter® cAMP assays (antagonist mode: ITEM 86-0007P-2362AN; agonist mode: ITEM 86-0007P-2362AG). The cells were preincubated with antagonistic peptides for 30 min at room temperature. After addition of the ligand at EC80, cells were further incubated for 30 min at room temperature. Cells were lysed and the cAMP content of the cell lysate was determined by the β-galactosidase-based enzyme fragment complementation assay ([Eglen, 2002]). IC50 values were estimated by the following equation: IC50 = 10^[Log(A/B) × (50–D)/(C–D) + Log(B)], where A is the concentration at >50% inhibition, B is the concentration at <50% inhibition, C is the inhibition rate at concertation A, and D is the inhibition rate at concertation B.
First, the antagonistic activities of parental VIpep-3, KS-132, KS-133 (monocyclic) (no bridging between Lys^7 and Asp^11), and KS-133 against human VIPR1, VIPR2, and PAC1 were evaluated by a calcium influx assay. After antagonistic peptide treatment for 30 min, ligand at a concentration of EC80 was added to the cells and then calcium signaling was measured.
FIGURE 3 Antagonistic/agonistic activities of peptides in the calcium influx and cAMP assays. For evaluation of the antagonistic activity, the cells were preincubated with antagonistic peptides for 30 min. In the calcium influx assay, after addition of ligand at EC80, calcium mobilization was monitored immediately (see details in the Methods section) (n = 4 wells for each treatment). In the cAMP assay, after a 30 min incubation with the ligand at EC80, cAMP production in cells was measured (see details in the Methods section) (n = 4 wells for each treatment).

With `CC[C@H](C)[C@H](NC(=O)[C@H](CC(C)C)NC(=O)[C@@H]1CC(=O)NCCCC[C@@H]2NC(=O)[C@@H]3CCCN3C(=O)[C@H](CC(C)C)NC(=O)[C@H](Cc3ccc(O)cc3)NC(=O)[C@@H]3CCCN3C(=O)[C@@H]3CCCN3C(=O)[C@@H](NC(C)=O)CSSC[C@H](NC(=O)[C@H](CC(C)C)NC(=O)[C@H](Cc3ccc(O)cc3)NC2=O)C(=O)N1)C(N)=O` [KS-133, Ac-c[Cys-Pro-Pro-Tyr-Leu-Pro-c(Lys-Tyr-Leu-Cys]-Asp)-Leu-Ile-NH2] (Ac-CPPYLPKYLCDLI-NH2; disulfide 1-10; lactam 7-11) the “Effect on Ro 25-1553-induced changes in soma size, branch number and dendrite length” value ([1]; KS-133 simultaneously with Ro 25-1553, P1-14) was “counteracted”, the “Sholl analysis, effect on Ro 25-1553-induced morphological abnormalities of apical and basal dendrites” value ([1]; KS-133 with Ro 25-1553, prefrontal cortex) was “prevented the morphological abnormalities” and the IC50 (human PAC1) was greater than 5000 nM.
